Results: patent US20070149508A1, “Six membered heteroaromatic inhibitors targeting resistant kinase mutations” (TargeGen, Inc., priority 2005, published 2007)
Structures can show the parent of a compound that is named as a salt.

Tests used:
Abl kinase = Abl kinase (Homo sapiens, UniProt P00519); test: biochemical; settings: Abl IC50 (nM), Abl kinase (Invitrogen, 20 ng/well), Abltide 100 μM, ATP 500 nM, 37° C. for 60 minutes, top concentration 10 uM
Experimental: Kinase activity was assessed using luminescent detection (KinaseGlo, Promega) of residual ATP concentration in reaction mixtures containing optimized levels of kinase, substrate, ATP, compound and appropriate buffers. Kinase, substrate and ATP concentrations were determined per the supplier's recommendations. Briefly, this involved running concentration curves to select for optimal signal.
The reaction mixture (50 ul/well) consisted of Abl kinase (Invitrogen, 20 ng/well); Abltide peptide substrate (Upstate, 100 μM) and ATP (500 nM). Each compound was evaluated at a top concentration of 10 uM with 1:3 dilution steps, 10 dilution steps total. Compound was diluted into DMSO and transferred to the reaction plate, resulting in a final DMSO concentration of 2%. This amount of DMSO was determined not to interfere with the enzyme. The reaction was conducted at 37° C. for 60 minutes. The degree of inhibition was assessed using IC50 determinations, which were obtained using GraphPad Prism4.

Abl (T315I) = target: T1, Abl (T315I) (Homo sapiens, UniProt P00519, T315I); test: Abl (T315I) Kinase Assay (KinaseGlo luminescent detection of residual ATP); assay type: biochemical; settings: Abl (T315I) IC50 (nM), Abl (T315I) (Upstate, 17 ng/well), Abltide 100 uM, ATP 500 nM, 60 minutes at 37° C.
T1 construct: purchased Upstate
Experimental: The assay was performed similarly to the Abl kinase assay. Abl (T315I) (Upstate, 17 ng/well); Abltide substrate (100 uM) and ATP (500 nM) comprised the reaction mixture. Compound was similarly diluted, and the reaction plate was incubated for 60 minutes at 37° C.

Structure (SMILES)	IC50 (Abl kinase)	IC50 (Abl (T315I))
NCC(=O)N1CCC(S(=O)(=O)c2ccc(Nc3ncc(/C=C/c4cccc5[nH]ccc45)cn3)cc2)CC1 [1-(4-(4-(5-((E)-2-(1H-indol-4-yl)vinyl)pyrimidin-2-ylamino)phenylsulfonyl)piperidin-1-yl)-2-aminoethanone hydrochloride]	66 nM	700 nM
O=C(Nc1cn2cc(/C=C/c3cnc(Nc4ccc(S(=O)(=O)C5CCNCC5)cc4)nc3)ccc2n1)C(F)(F)F [2,2,2-Trifluoro-N-{6-[(E)-2-(2-{[4-(piperidin-4-ylsulfonyl)phenyl]amino}pyrimidin-5-yl)vinyl]imidazolo[1,2-a]pyridin-2-yl}acetamide trifluoroacetic acid salt]	1130 nM	475 nM
OCCN1CCN(c2cccc(Nc3ncc(/C=C/c4cccc5[nH]ccc45)cn3)c2)CC1 [2-(4-(3-(5-((E)-2-(1H-indol-4-yl)vinyl)pyrimidin-2-ylamino)phenyl)piperazin-1-yl)ethanol Hydrochloride]	178 nM	
O=S(=O)(c1ccc(Nc2ncc(/C=C/c3cccc4[nH]ccc34)cn2)cc1)C1CCN(CCO)CC1 [2-(4-(4-(5-((E)-2-(1H-indol-4-yl)vinyl)pyrimidin-2-ylamino)phenylsulfonyl)piperidin-1-yl)ethanol Hydrochloride]	8.4 nM	202 nM
O=S(=O)(c1ccc(Nc2ncc(/C=C/c3ccc(F)c(O)c3)cn2)cc1)C1CCNCC1 [2-Fluoro-5-(2-{2-[4-(piperidine-4-sulfonyl)-phenylamino]-pyrimidin-5-yl}-vinyl)-phenol]	12 nM	213 nM
Nc1nc2ccc(/C=C/c3cnc(Nc4ccc(S(=O)(=O)N5CCC(NCCO)CC5)cc4)nc3)cc2s1 [2-[(1-{[4-({5-[(E)-2-(2-amino-1,3-benzothiazol-6-yl)vinyl]pyrimidin-2-yl}amino)phenyl]sulfonyl}piperidin-4-yl)amino]ethanol]	158 nM	146 nM
O=S(=O)(c1ccc(Nc2ncc(/C=C/c3cccc4[nH]ncc34)cn2)cc1NCCO)N1CCNCC1 [2-{[5-({5-[(E)-2-(1H-indazol-4-yl)vinyl]pyrimidin-2-yl}amino)-2-(piperazin-1-ylsulfonyl)phenyl]amino}ethanol]	6.5 nM	233 nM
Nc1nc2ccc(/C=C/c3cnc(Nc4ccc(S(=O)(=O)N5CCNCC5)c(NCCO)c4)nc3)cc2s1 [2-{[5-({5-[(E)-2-(2-amino-1,3-benzothiazol-6-yl)vinyl]pyrimidin-2-yl}amino)-2-(piperazin-1-ylsulfonyl)phenyl]amino}ethanol]	154 nM	156 nM
O=S(=O)(c1ccc(Nc2ncc(/C=C/c3ccccc3)cn2)cc1NCCO)N1CCNCC1 [2-{[5-({5-[(E)-2-phenylvinyl]pyrimidin-2-yl}amino)-2-(piperazin-1-ylsulfonyl)phenyl]amino}ethanol trifluoroacetic acid salt]	131 nM	2500 nM
Nc1noc2c(/C=C/c3cnc(Nc4ccc(S(=O)(=O)N5CCNCC5)c(NCCO)c4)nc3)cccc12 [2-{[5-({5-{(E)-2-(3-amino-1,2-benzisoxazol-7-yl)vinyl]pyrimidin-2-yl}amino)-2-(piperazin-1-ylsulfonyl)phenyl]amino}ethanol]	34 nM	1860 nM
Cc1cc(S(=O)(=O)N2CCNCC2)ccc1Nc1ncc(/C=C/c2cccc(O)c2)cn1 [3-(2-{2-[2-Methyl-4-(piperazine-1-sulfonyl)-phenylamino]-pyrimidin-5-yl}-vinyl)-phenol]	3450 nM	10400 nM
O=S(=O)(c1ccc(Nc2ncc(/C=C/c3cccc(O)c3)cn2)cc1F)N1CCNCC1 [3-(2-{2-[3-Fluoro-4-(piperazine-1-sulfonyl)-phenylamino]-pyrimidin-5-yl}-vinyl)-phenol]	56 nM	266 nM
O=S(=O)(c1ccc(Nc2ncc(/C=C/c3cccc(O)c3)cn2)cc1)N1CCC(CO)CC1 [3-(2-{2-[4-(4-Hydroxymethyl-piperidine-1-sulfonyl)-phenylamino]-pyrimidin-5-yl}-vinyl)-phenol]	22 nM	225 nM
O=S(=O)(c1ccc(Nc2ncc(/C=C/c3cccc(O)c3)cn2)c(C(F)(F)F)c1)N1CCNCC1 [3-(2-{2-[4-(Piperazine-1-sulfonyl)-2-trifluoromethyl-phenylamino]-pyrimidin-5-yl}-vinyl)-phenol]	44700 nM	1.53e+06 nM
O=S(=O)(c1ccc(Nc2ncc(/C=C/c3cccc(O)c3)cn2)cc1OC(F)(F)F)N1CCNCC1 [3-(2-{2-[4-(Piperazine-1-sulfonyl)-3-trifluoromethoxy-phenylamino]-pyrimidin-5-yl}-vinyl)-phenol]	97 nM	752 nM
O=S(=O)(c1ccc(Nc2ncc(/C=C/c3cccc(O)c3)cn2)cc1C(F)(F)F)N1CCNCC1 [3-(2-{2-[4-(Piperazine-1-sulfonyl)-3-trifluoromethyl-phenylamino]-pyrimidin-5-yl}-vinyl)-phenol]	222 nM	1410 nM

Structure (SMILES)	IC50 (Abl kinase)	IC50 (Abl (T315I))
O=S(=O)(c1ccc(Nc2ncc(/C=C/c3cccc(O)c3)cn2)cc1)N1CCNCC1 [3-(2-{2-[4-(Piperazine-1-sulfonyl)-phenylamino]-pyrimidin-5-yl}-vinyl)-phenol]	4.1 nM	37 nM
O=S(=O)(CC1CCNCC1)c1ccc(Nc2ncc(/C=C/c3cccc(O)c3)cn2)cc1 [3-(2-{2-[4-(Piperidin-4-ylmethanesulfonyl)-phenylamino]-pyrimidin-5-yl}-vinyl)-phenol]	31 nM	96 nM
N=C(N)c1cccc(/C=C/c2cnc(Nc3ccc(S(=O)(=O)C4CCNCC4)cc3)nc2)c1 [3-(2-{2-[4-(Piperidine-4-sulfonyl)-phenylamino]-pyrimidin-5-yl}-vinyl)-benzamidine]	3670 nM	53000 nM
NS(=O)(=O)c1cccc(/C=C/c2cnc(Nc3ccc(S(=O)(=O)C4CCNCC4)cc3)nc2)c1 [3-(2-{2-[4-(Piperidine-4-sulfonyl)-phenylamino]-pyrimidin-5-yl}-vinyl)-benzenesulfonamide Hydrochloride]	198 nM	2070 nM
O=S(=O)(c1ccc(Nc2ncc(/C=C/c3cccc(O)c3)cn2)cc1)C1CCNCC1 [3-(2-{2-[4-(Piperidine-4-sulfonyl)-phenylamino]-pyrimidin-5-yl}-vinyl)-phenol]	1.7 nM	22 nM
NS(=O)(=O)c1cccc(/C=C/c2cnc(Nc3ccc(S(=O)(=O)N4CCCNCC4)cc3)nc2)c1 [3-(2-{2-[4-([1,4]Diazepane-1-sulfonyl)-phenylamino]-pyrimidin-5-yl}-vinyl)-benzenesulfonamide]	781 nM	2440 nM
Oc1ccc(Cl)c(/C=C/c2cnc(Nc3ccc(OCCN4CCCC4)cc3)nc2)c1 [3-((E)-2-(2-(4-(2-(pyrrolidin-1-yl)ethoxy)phenylamino)pyrimidin-5-yl)vinyl)-4-chlorophenol hydrochloride]	13 nM	972 nM
Oc1cccc(/C=C/c2cnc(Nc3ccc(OCCN4CCCC4)cc3)nc2)c1 [3-((E)-2-(2-(4-(2-(pyrrolidin-1-yl)ethoxy)phenylamino)pyrimidin-5-yl)vinyl)phenol trifluoroacetate]	30 nM	297 nM
Cc1nc(Nc2ccc(S(=O)(=O)C3CCNCC3)cc2)ncc1/C=C/c1cccc(O)c1 [3-((E)-2-(2-(4-(piperidin-4-ylsulfonyl)phenylamino)-4-methylpyrimidin-5-yl)vinyl)phenol hydrochloride]	10 nM	65 nM
Nc1cc(C(F)(F)F)cc(/C=C/c2cnc(Nc3ccc(S(=O)(=O)C4CCNCC4)cc3)nc2)c1N [3-((E)-2-(2-(4-(piperidin-4-ylsulfonyl)phenylamino)pyrimidin-5-yl)vinyl)-5-(trifluoromethyl)benzene 1,2-diamine.]	210 nM	522 nM
O=S(=O)(c1ccc(Nc2ccc(/C=C/c3cccc(O)c3)cn2)cc1)C1CCNCC1 [3-((E)-2-(6-(4-(piperidin-4-ylsulfonyl)phenylamino)pyridin-3-yl)vinyl)phenol hydrochloride]	32 nM	192 nM
O=S(=O)(c1ccc(Nc2ncc(/C=C/c3cccc(O)c3)cn2)cc1)N1CCC(CCO)CC1 [3-[2-(2-{4-[4-(2-Hydroxy-ethyl)-piperidine-1-sulfonyl]-phenylamino}-pyrimidin-5-yl)-vinyl]-phenol]	18 nM	160 nM
O=S(=O)(c1ccc(Nc2ncc(/C=C/c3cccc(O)c3)cn2)cc1NCCO)N1CCNCC1 [3-{(E)-2-[2-({3-[(2-hydroxyethyl)amino]-4-(piperazin-1-ylsulfonyl)phenyl}amino)pyrimidin-5-yl]vinyl}phenol trifluoroacetic acid salt]	7.3 nM	78 nM
O=C1Cc2c(/C=C/c3cnc(Nc4ccc(S(=O)(=O)C5CCNCC5)cc4)nc3)cccc2N1 [4-(2-{2-[4-(Piperidine-4-sulfonyl)-phenylamino]-pyrimidin-5-yl}-vinyl)-1,3-dihydro-indol-2-one, hydrogen chloride]	127 nM	2270 nM
O=S(=O)(c1ccc(Nc2ncc(/C=C/c3ccc(O)cc3)cn2)cc1)C1CCNCC1 [4-(2-{2-[4-(Piperidine-4-sulfonyl)-phenylamino]-pyrimidin-5-yl}-vinyl)-phenol]	15 nM	32 nM
NS(=O)(=O)c1ccc(/C=C/c2cnc(Nc3ccc(S(=O)(=O)N4CCCNCC4)cc3)nc2)cc1 [4-(2-{2-[4-([1,4]Diazepane-1-sulfonyl)-phenylamino]-pyrimidin-5-yl}-vinyl)-benzenesulfonamide]	977 nM	298 nM
